Results on 16 molecules are retold here after patent US20220107246A1, “NONCOVALENT TAGS AND RELATED METHODS FOR CYTOSOLIC DELIVERY OF MACROBIOMOLECULES” (University of Washington, priority 2019, published 2022).

Experiment [1] concerns peptidylprolyl isomerase B (PPIB) mRNA. The experiment is described as follows: siRNA delivery and real time RT PCR (PPIB mRNA knockdown in PC-3 cells). In kind it is cell-based. The note with it: siRNA complexed with tag, real-time PCR. How it is done: A small library of 14 chemicals that represent various lipophilicities while sharing a carboxylic acid group for easy conjugation with ethidium was screened. These hydrophobic compounds were chemically linked to ethidium via a hexacarbon (C6) linker. The resulting small-molecule tags were mixed with a model siRNA sequence against peptidylprolyl isomerase B (PPIB) and tested on a prostate tumor cell line, PC-3, for RNAi.
PC-3 cells were seeded in 24-well plate at density of 5,000 cells per well. […] Total RNA was isolated from the cell monolayer using Trizol reagent (Invitrogen) according to the manufacturer's protocol. 200 nanograms of RNA was converted to cDNA using random hexamer primer and MultiScribe Reverse Transcriptase Reagent (Applied Biosystems, Inc., Branchburg, N.J.). 100 nanograms of cDNA was amplified by SensiFast SYBR kit (Bioline, Taunton, Mass.) on a Chromo4™ Real-Time system (Bio-Rad, Hercules, Calif.). The primers used for PPIB amplification were 5′-[…]-3′ (forward primer; SEQ ID NO:6) and 5′-[…]-3′ (reverse primer; SEQ ID NO:7). Primers for detection of 18s were 5′-[…]-3′ (forward primer; SEQ ID NO:8) and 5′-[…]-3′ (reverse primer; SEQ ID NO:9).
On the technique in general: Real-time PCR tracks product formation cycle by cycle.

For experiment [2], the system named is actin in HeLa cells. The experiment is described as follows: F-actin labeling in live cells using LifeAct-GFP. In kind it is cell-based. How it is done: Lastly, two applications that should have a major impact on biology and medicine, immunofluorescence in live cells, and delivery of therapeutic proteins inside cells were assessed for compatibility with the disclosed tag approach for cytosolic delivery. Immunofluorescence, one of the most common techniques in biological and medical research, is currently used to profile cell surface markers on live cells (e.g., many flow cytometry studies) missing all the key cell signaling nodes inside cells. Alternatively, immunofluorescence is currently used on fixed cells, missing the temporal dynamics of active cell signaling that determines cell fate, behavior, communications, and growth. […] Briefly, HeLa cells were incubated with cholesterol-tagged LifeAct-GFP or LifeAct-GFP alone and the cells were imaged. […] To confirm the labeling specificity, cells were pretreated with cytochalasin-D before incubating with LifeAct-Tag.
HeLa cells were seeded onto glass-bottom dishes. After one-day of culturing, cells were incubated with fresh media containing tagged LifeAct-GFP for 4 h at 37° C., followed by washing and counterstaining Hoechst 33258. The cells were imaged on an Olympus fluorescence microscope equipped with a true-color CCD, Qcolor 5.

Experiment [3] deals with HeLa cells. The experiment is described as follows: Cellular delivery of tagged proteins, confocal microscopy. In kind it is cell-based. The note with it: for intracellular fluorescence pattern of cholesterol-tagged protein: protein tagged with CB-cholesterol tag. The protocol: Purified Coomassie blue-cholesterol tag powder was reconstituted with ethanol/water (v/v: 4/1) to a concentration of 1.6 mM and stored at 4° C. as a stock. Before tagging, the concentration of all the protein solutions was diluted to 25 μM. […] The mixture was quickly mixed by pipetting. The mixture was incubated in a water bath (37° C.) for 8 min and sonicated in an ultrasonic water bath for 30 seconds. After another round of 8-min water bath incubation at 37° C., the protein was ready for delivery.
Cells were seeded on glass-bottom dishes (poly-D-lysine treated, MatTek Corp.) one day before the experiments. The cell monolayer was washed once with serum-free RPMI 1640 media and treated with 2 mL of RPMI 1640 media containing the tagged protein at a final concentration of 1 μM for 2 h. In the end, the cells were counter-stained with Hoechst 33342 and Alexa Fluor® 594 labeled Wheat Germ Agglutinin (WGA-AF594), respectively. The cells were washed three times with RPMI 1640 and imaged on a Zeiss LSM 710 microscope.
To study the delivery effect at low temperature (4° C.), cell monolayers were pre-equilibrated with cold media (RPMI 1640) for 10 minutes at 4° C. and then treated with the cold solution of tagged protein for 3 h. The cells were washed with cold media and imaged immediately.

Experiment [4] has as its system siRNA. The experiment is described as follows: Intercalation into siRNA monitored by fluorescence activation. It is filed as binding. The conditions noted are these: for fluorescence activation upon intercalation into siRNA: compared with DNA (positive control); for intercalation of tag into siRNA (fluorescence enhancement): compared to tag 5. The protocol: To test this new concept of cytosolic delivery, a conjugation-free methodology was investigated that incorporated small chemical tags to transform siRNA sufficiently hydrophobic, membrane-permeant, and self-deliverable. […] For a proof of concept, a number of existing oligonucleotide intercalators were tested, due to their potential to non-covalently attach the lipophilic moiety to siRNA. Although DNA intercalating dyes are well-studied and broadly available, selection of dsRNA intercalators is limited. […] DNA intercalating dyes apply a stretching force thus may or may not work on siRNA. Eight DNA intercalating dyes (molecular structures shown in FIG. 7) were evaluated utilizing a very convenient feature of these dyes, fluorescence activation upon intercalation into oligonucleotides. […] Therefore, ethidium was used in the following studies.
After 5-minute incubation, the mixture was diluted to 100 μL and the fluorescence was measured with the microplate reader. The fluorescence increment (J. B. Le Pecq, et al., DNA polyintercalating drugs: DNA binding of diacridine derivatives, Proc Natl Acad Sci USA 72(8) (1975) 2915-9; B. Gaugain, et al., DNA Bifunctional intercalators. 2. Fluorescence properties and DNA binding interaction of an ethidium homodimer and an acridine ethidium heterodimer, Biochemistry 17(24) (1978) 5078-88, each of which is incorporated herein by reference in its entirety), ΔIF, is the difference of fluorescence intensity of the tags in the presence or absence of siRNA.

Experiment [5] relates to siRNA. The experiment in a line: Gel electrophoresis of siRNA with intercalators. The conditions noted are these: high degree of intercalation. An excerpt:
FIGS. 2A-2H illustrate tag design and characterizations. (FIG. 2A) Intercalation of conventional DNA intercalators into siRNA monitored by fluorescence activation. Ethidium and acridinium show similar fluorescence activation in both DNA and RNA, unlike the others. (FIG. 2B) Gel electrophoresis of siRNA with acridinium and ethidium at low and high degree of intercalation. […] (FIG. 2C) Screening hydrophobic compounds (after linking with ethidium) for mRNA (PPIB) knockdown in PC-3 cells. The numbers represent the compounds illustrated in FIG. 2D. Steroids such as cholesterol and stigmasterol offer the highest RNAi efficiency. (FIG. 2D) Molecular structures of the 14 exemplary chemical tags tested in the current study. The hydrophobic compounds are linked to ethidium via a C6 spacer. (FIG. 2E) Dose response of gene knockdown using siRNA tagged with ethidium-cholesterol (left) in PC-3 cells. […]
To test this new concept of cytosolic delivery, a conjugation-free methodology was investigated that incorporated small chemical tags to transform siRNA sufficiently hydrophobic, membrane-permeant, and self-deliverable. […] Eight DNA intercalating dyes (molecular structures shown in FIG. 7) were evaluated utilizing a very convenient feature of these dyes, fluorescence activation upon intercalation into oligonucleotides. […]

In experiment [6] the test system is PC-3, MDA-MB-231, SK-BR-3, DU-145, KB, and HEK-293T. The experiment in a line: Cellular delivery of aprotinin-tag complex in additional cell types. In kind it is cell-based. The conditions noted are these: protein-tag complex; independent of the cell lines. How it is done: To further rule out the scenario that the tagged proteins initially enter cells via endocytosis followed by an efficient endosomal escape, the confocal microscopy experiment were performed again using the small protein, aprotinin, at 4° C., a temperature that blocks endocytic membrane trafficking. […] To evaluate the generality of this protein tagging technology, it was tested using […] additional cell types besides HeLa cells (i.e., PC-3, MDA-MB-231, SK-BR-3, DU-145, KB, and HEK-293T). Cells exposed to protein (aprotinin)-tag complex and then stained for protinin and WGA to show the cell boundary. […] Perhaps more importantly, protein transfection directly into the cytosol was also achieved in further experiments of primary cells including human adipose-derived stem cells, primary human dermal fibroblasts, and primary human umbilical vein endothelial cells (HUVEC) (not shown).
Cells were seeded on glass-bottom dishes (poly-D-lysine treated, MatTek Corp.) one day before the experiments. The cell monolayer was washed once with serum-free RPMI 1640 media and treated with 2 mL of RPMI 1640 media containing the tagged protein at a final concentration of 1 μM for 2 h. In the end, the cells were counter-stained with Hoechst 33342 and Alexa Fluor® 594 labeled Wheat Germ Agglutinin (WGA-AF594), respectively. […]

Entries after “also recorded” stand apart in the source; their conditions may differ.

Turning to “3,8-bis(tert-butyloxycarbonylamino)-5-(6-caprylcarbonylamino-hexyl)-6-phenylphenanthridine [tag 7]”, in experiment [1], the “RNAi effect (PPIB mRNA knockdown), tag screening” value (shortened to “RNAi effect (PPIB mRNA knockdown)”) was “no or low effect”.

For “3,8-bis(tert-butyloxycarbonylamino)-5-(6-cholesterylcarbonylamino-hexyl)-6-phenylphenanthridine [tag 5]”, in experiment [1], the “RNAi effect (PPIB mRNA knockdown)” value is on record as “significant RNAi effect”.

On to “3,8-bis(tert-butyloxycarbonylamino)-5-(6-pentadecylcarbonylamino-hexyl)-6-phenylphenanthridine [tag 8]”, for which, in experiment [1], the “RNAi effect (PPIB mRNA knockdown)” value was “no or low effect”.

For the molecule `C=C1[C@@H](C)[C@H]2[C@H](Cc3ccccc3)NC(=O)[C@]23[C@H](OC(C)=O)/C=C/[C@@](C)(O)C(=O)[C@@H](C)C/C=C/[C@H]3[C@@H]1O` [cytochalasin-D, reference compound], the “actin filament structure after pretreatment” value in experiment [2] (cells pretreated before incubating with LifeAct-Tag) was “completely disrupted”.

As for “lysozyme: protein, 15 kDa, fluorescently labeled cargo”, the “intracellular fluorescence pattern of cholesterol-tagged protein” value in experiment [3] (HeLa cells) is “diffused distribution while having a few punctate bright spots”. The intracellular fluorescence distribution result in experiment [3] (tag:protein molar ratio 1:1) is “only punctate intracellular fluorescence distribution”; in experiment [3] (tag:protein molar ratio 3:1), “only punctate intracellular fluorescence distribution”; in experiment [3] (tag:protein molar ratio 6:1), “diffused fluorescence signal started to appear”; in experiment [3] (tag:protein molar ratio 8:1), “significant direct membrane permeation”.

`CC[n+]1c(-c2ccccc2)c2cc(N)ccc2c2ccc(N)cc21` [ethidium, reference compound]: the “fluorescence activation upon intercalation into siRNA” value in experiment [4] is given as “strong binding with siRNA”. Besides, the “unwinding of siRNA duplex” value in experiment [5] was “does not”.

Turning to aprotinin, the “intracellular fluorescence pattern of cholesterol-tagged protein” value in experiment [3] (HeLa cells) is “bright and homogeneous fluorescence intracellular distribution”. Also, the “intracellular fluorescence pattern without the cholesterol tag” value in experiment [3] (HeLa cells, same condition, no tag) is given as “only a few punctate fluorescent spots”. In addition, the “uptake by cells at 4° C.” value in experiment [3] (low tag/protein ratio) is “virtually confined to the cell membrane”; in experiment [3] (optimal tag/aprotinin ratio), “bright and homogeneous intracellular fluorescence”; in experiment [3] (without the tag) it was “negligible”. Besides, in experiment [6], the “cytosolic delivery in additional cell types” value is “Efficient cytosolic delivery”.

Regarding “3,8-bis(tert-butyloxycarbonylamino)-5-(6-L-argininylcarbonylamino-hexyl)-6-phenylphenanthridine [tag 4]”, in experiment [1], the “RNAi effect (PPIB mRNA knockdown)” value is reported as “no or low effect”.

With acridinium [reference compound], the “fluorescence activation upon intercalation into siRNA” value in experiment [4] was “strong binding with siRNA”. In addition, the “unwinding of siRNA duplex” value in experiment [5] is on record as “unwound the siRNA double helix”.

Turning to “Coomassie blue, dicholest carbamyl 3-(3-propyl dimethyl amino)propyl sulfonamide [cholesterol tag]”, the “imaging quality of delivered LifeAct-GFP” value in experiment [2] (same LifeAct-GFP concentration) is listed as “significantly better contrast”.

For “3,8-bis(tert-butyloxycarbonylamino)-5-(6-chloroquinecarboylamino-hexyl)-6-phenylphenanthridine [tag 13]”, the “RNAi effect (PPIB mRNA knockdown)” value in experiment [1] was “no or low effect”.

Consider “3,8-bis(tert-butyloxycarbonylamino)-5-(6-L-histinylcarbonylamino-hexyl)-6-phenylphenanthridine [tag 3]”, for which the “RNAi effect (PPIB mRNA knockdown)” value in experiment [1] is on record as “no or low effect”.

Consider “3,8-bis(tert-butyloxycarbonylamino)-5-[6-(1,2-dipalmitin)-carboylamino-hexyl]-6-phenylphenanthridine [tag 14]”, for which the “intercalation of tag into siRNA (fluorescence enhancement)” value in experiment [4] is “minor fluorescence enhancement; also recorded: failed to intercalate into siRNA”. In addition, the “RNAi effect (PPIB mRNA knockdown)” value in experiment [1] is listed as “no RNAi effect”.

Take “3,8-bis(tert-butyloxycarbonylamino)-5-(6-L-leucinylcarbonylamino-hexyl)-6-phenylphenanthridine [tag 2]”: the “RNAi effect (PPIB mRNA knockdown)” value in experiment [1] was “no or low effect”.

With “3,8-bis(tert-butyloxycarbonylamino)-5-(6-cerotylcarbonylamino-hexyl)-6-phenylphenanthridine [tag 9]”, the “intercalation of tag into siRNA (fluorescence enhancement)” value in experiment [4] is recorded as “minor fluorescence enhancement; also recorded: failed to intercalate into siRNA”. The “RNAi effect (PPIB mRNA knockdown)” value in experiment [1] is listed as “failed to lower the PPIB mRNA level”.

Turning to “3,8-bis(tert-butyloxycarbonylamino)-5-(6-stigmasterylcarbonylamino-hexyl)-6-phenylphenanthridine [tag 6]”, in experiment [1], the “RNAi effect (PPIB mRNA knockdown)” value is reported as “significant RNAi effect”.
